In this test the test system is Enterococcus faecium UL602570 (vanA, clinical isolate). Type of test: cell-based. To be noted: UL602570 (vanA, clinical isolate, 18 h). The protocol:
The minimum inhibitory concentration (MIC) was determined by microdilution following the EUCAST and CLSI guidelines via the broth microdilution assay on a 96-well plate. Substances were dissolved in saline solution (0.9%) at a concentration equimolar to 1.28 mg/mL vancomycin. With an increasing hydrophobicity, some substances had to be pre-dissolved in DMSO. The final concentration of DMSO remained below 1.5% and was compared to the DMSO control (no antimicrobial effect was observed up to the highest concentration tested (10%)). All substances were serially diluted on the 96-well plate using Mueller-Hinton-Broth II (cation adjusted). Vancomycin was always used as a control. For bacterial loading, an overnight culture of the referring strain was taken and adjusted to a turbidity corresponding to 10^8 cfu/mL. The bacterial suspension was further diluted to load a bacterial number of 10^6 cfu/mL on the 96-well plate and incubate it for 18 h at 35 ± 1 °C, as described before. MIC was defined as the lowest concentration without visible growth.

Experimental findings from article PMC7345083, “Vancomycin-Lipopeptide Conjugates with High Antimicrobial Activity on Vancomycin-Resistant Enterococci” (Pharmaceuticals, 2020) are described below.

Values after ≈ are worked out from the molar mass of the structure shown.

In turn, `CCCCCCCCCCCCCCCC(=O)N[C@@H](CCCNC(=N)N)C(=O)N[C@@H](CCCNC(=N)N)C(=O)N[C@@H](CCCNC(=N)N)C(=O)N[C@@H](CSC1CC(=O)N(CC2CCC(C(=O)N(C)[C@H](CC(C)C)C(=O)N[C@H]3C(=O)N[C@@H](CC(N)=O)C(=O)N[C@H]4C(=O)N[C@H]5C(=O)N[C@H](C(=O)N[C@H](C(=O)O)c6cc(O)cc(O)c6-c6cc5ccc6O)[C@H](O)c5ccc(c(Cl)c5)Oc5cc4cc(c5O[C@@H]4O[C@H](CO)[C@@H](O)[C@H](O)[C@H]4O[C@H]4C[C@](C)(N)[C@H](O)[C@H](C)O4)Oc4ccc(cc4Cl)[C@H]3O)CC2)C1=O)C(N)=O` (stereo partly shown) [VN-R3C-C16] yielded an MIC median of 2.45 µg/mL (≈ 0.982 µM) and an MIC range of 2.45 to 4.89 µg/mL.

For `CCCCCCCCCCCC(=O)N[C@@H](CCCNC(=N)N)C(=O)N[C@@H](CCCNC(=N)N)C(=O)N[C@@H](CCCNC(=N)N)C(=O)N[C@H](Cc1ccc(O)cc1)C(=O)N[C@@H](CSC1CC(=O)N(CC2CCC(C(=O)NCCN[C@@]3(C)C[C@H](O[C@H]4[C@H](Oc5c6cc7cc5Oc5ccc(cc5Cl)[C@@H](O)[C@@H](NC(=O)[C@@H](CC(C)C)NC)C(=O)N[C@@H](CC(N)=O)C(=O)N[C@H]7C(=O)N[C@H]5C(=O)N[C@H](C(=O)N[C@H](C(=O)O)c7cc(O)cc(O)c7-c7cc5ccc7O)[C@H](O)c5ccc(c(Cl)c5)O6)O[C@H](CO)[C@@H](O)[C@@H]4O)O[C@@H](C)[C@H]3O)CC2)C1=O)C(N)=O` (stereo partly shown) [VV-R3yC-C12], the MIC median came out at 1.02 µg/mL (≈ 0.386 µM) and the MIC range was in the range of 0.25 to 2.03 µg/mL.

On to `CCCCCCCCCC(=O)N[C@@H](CCCNC(=N)N)C(=O)N[C@@H](CCCNC(=N)N)C(=O)N[C@@H](CCCNC(=N)N)C(=O)N[C@@H](CSC1CC(=O)N(CC2CCC(C(=O)N(C)[C@H](CC(C)C)C(=O)N[C@H]3C(=O)N[C@@H](CC(N)=O)C(=O)N[C@H]4C(=O)N[C@H]5C(=O)N[C@H](C(=O)N[C@H](C(=O)O)c6cc(O)cc(O)c6-c6cc5ccc6O)[C@H](O)c5ccc(c(Cl)c5)Oc5cc4cc(c5O[C@@H]4O[C@H](CO)[C@@H](O)[C@H](O)[C@H]4O[C@H]4C[C@](C)(N)[C@H](O)[C@H](C)O4)Oc4ccc(cc4Cl)[C@H]3O)CC2)C1=O)C(N)=O` (stereo partly shown) [VN-R3C-C10], for which the MIC median came to 4.66 µg/mL (≈ 1.93 µM) and the MIC range is 4.66 to 9.31 µg/mL.

As for `CCCCCCCCCCCCCCCCCC(=O)N[C@@H](CCCNC(=N)N)C(=O)N[C@@H](CCCNC(=N)N)C(=O)N[C@@H](CCCNC(=N)N)C(=O)N[C@@H](CSC1CC(=O)N(CC2CCC(C(=O)NCCNC(=O)[C@H]3NC(=O)[C@H]4NC(=O)[C@H](NC(=O)[C@@H]5NC(=O)[C@H](CC(N)=O)NC(=O)[C@H](NC(=O)[C@@H](CC(C)C)NC)[C@H](O)c6ccc(c(Cl)c6)Oc6cc5cc(c6O[C@@H]5O[C@H](CO)[C@@H](O)[C@H](O)[C@H]5O[C@H]5C[C@](C)(N)[C@H](O)[C@H](C)O5)Oc5ccc(cc5Cl)[C@H]4O)c4ccc(O)c(c4)-c4c(O)cc(O)cc43)CC2)C1=O)C(N)=O` (stereo partly shown) [VC-R3C-C18], the MIC median worked out at 10.17 µg/mL (≈ 3.96 µM) and the MIC range fell in the range of 5.08 to 10.17 µg/mL.

`CCCCCCCCCCCCCCCC(=O)N[C@@H](CCCNC(=N)N)C(=O)N[C@@H](CCCNC(=N)N)C(=O)N[C@@H](CCCNC(=N)N)C(=O)N[C@@H](CSC1CC(=O)N(CC2CCC(C(=O)NCCN[C@@]3(C)C[C@H](O[C@H]4[C@H](Oc5c6cc7cc5Oc5ccc(cc5Cl)[C@@H](O)[C@@H](NC(=O)[C@@H](CC(C)C)NC)C(=O)N[C@@H](CC(N)=O)C(=O)N[C@H]7C(=O)N[C@H]5C(=O)N[C@H](C(=O)N[C@H](C(=O)O)c7cc(O)cc(O)c7-c7cc5ccc7O)[C@H](O)c5ccc(c(Cl)c5)O6)O[C@H](CO)[C@@H](O)[C@@H]4O)O[C@@H](C)[C@H]3O)CC2)C1=O)C(N)=O` (stereo partly shown) [VV-R3C-C16]: the MIC median is 2.50 µg/mL (≈ 0.985 µM) and the MIC range was 2.50 to 3.50 µg/mL.

Molecule `CCCCCC(=O)N[C@@H](CCCNC(=N)N)C(=O)N[C@@H](CCCNC(=N)N)C(=O)N[C@@H](CCCNC(=N)N)C(=O)N[C@@H](CSC1CC(=O)N(CC2CCC(C(=O)NCCNC(=O)[C@H]3NC(=O)[C@H]4NC(=O)[C@H](NC(=O)[C@@H]5NC(=O)[C@H](CC(N)=O)NC(=O)[C@H](NC(=O)[C@@H](CC(C)C)NC)[C@H](O)c6ccc(c(Cl)c6)Oc6cc5cc(c6O[C@@H]5O[C@H](CO)[C@@H](O)[C@H](O)[C@H]5O[C@H]5C[C@](C)(N)[C@H](O)[C@H](C)O5)Oc5ccc(cc5Cl)[C@H]4O)c4ccc(O)c(c4)-c4c(O)cc(O)cc43)CC2)C1=O)C(N)=O` (stereo partly shown) [VC-R3C-C6] had an MIC median of 106.00 µg/mL (≈ 44.2 µM).

As for `CCCCCCCCCCCCCC(=O)N[C@@H](CCCNC(=N)N)C(=O)N[C@@H](CCCNC(=N)N)C(=O)N[C@@H](CCCNC(=N)N)C(=O)N[C@@H](CSC1CC(=O)N(CC2CCC(C(=O)NCCNC(=O)[C@H]3NC(=O)[C@H]4NC(=O)[C@H](NC(=O)[C@@H]5NC(=O)[C@H](CC(N)=O)NC(=O)[C@H](NC(=O)[C@@H](CC(C)C)NC)[C@H](O)c6ccc(c(Cl)c6)Oc6cc5cc(c6O[C@@H]5O[C@H](CO)[C@@H](O)[C@H](O)[C@H]5O[C@H]5C[C@](C)(N)[C@H](O)[C@H](C)O5)Oc5ccc(cc5Cl)[C@H]4O)c4ccc(O)c(c4)-c4c(O)cc(O)cc43)CC2)C1=O)C(N)=O` (stereo partly shown) [VC-R3C-C14], the MIC median was determined as 2.45 µg/mL (≈ 0.976 µM) and the MIC range is 2.45 to 4.91 µg/mL.

Regarding `CC(C)C[C@H](C(=O)N[C@H]1C(=O)N[C@@H](CC(N)=O)C(=O)N[C@H]2C(=O)N[C@H]3C(=O)N[C@H](C(=O)N[C@H](C(=O)O)c4cc(O)cc(O)c4-c4cc3ccc4O)[C@H](O)c3ccc(c(Cl)c3)Oc3cc2cc(c3O[C@@H]2O[C@H](CO)[C@@H](O)[C@H](O)[C@H]2O[C@H]2C[C@](C)(N)[C@H](O)[C@H](C)O2)Oc2ccc(cc2Cl)[C@H]1O)N(C)C(=O)C1CCC(CN2C(=O)CC(SC[C@H](NC(=O)[C@H](CCCNC(=N)N)NC(=O)[C@H](CCCNC(=N)N)NC(=O)[C@@H](N)CCCNC(=N)N)C(N)=O)C2=O)CC1` (stereo partly shown) [VN-R3C], the MIC median was found to be 67.75 µg/mL (≈ 30 µM) and the MIC range lay in the range of 32.00 to 67.75 µg/mL.

As for `CCCCCCCCCCCCCCCCCC(=O)N[C@@H](CCCNC(=N)N)C(=O)N[C@@H](CCCNC(=N)N)C(=O)N[C@@H](CCCNC(=N)N)C(=O)N[C@@H](CSC1CC(=O)N(CC2CCC(C(=O)NCCN[C@@]3(C)C[C@H](O[C@H]4[C@H](Oc5c6cc7cc5Oc5ccc(cc5Cl)[C@@H](O)[C@@H](NC(=O)[C@@H](CC(C)C)NC)C(=O)N[C@@H](CC(N)=O)C(=O)N[C@H]7C(=O)N[C@H]5C(=O)N[C@H](C(=O)N[C@H](C(=O)O)c7cc(O)cc(O)c7-c7cc5ccc7O)[C@H](O)c5ccc(c(Cl)c5)O6)O[C@H](CO)[C@@H](O)[C@@H]4O)O[C@@H](C)[C@H]3O)CC2)C1=O)C(N)=O` (stereo partly shown) [VV-R3C-C18], the MIC median worked out at 2.54 µg/mL (≈ 0.99 µM) and the MIC range lay in the range of 1.27 to 2.54 µg/mL.

With `CCCCCCCC(=O)N[C@@H](CCCNC(=N)N)C(=O)N[C@@H](CCCNC(=N)N)C(=O)N[C@@H](CCCNC(=N)N)C(=O)N[C@@H](CSC1CC(=O)N(CC2CCC(C(=O)NCCNC(=O)[C@H]3NC(=O)[C@H]4NC(=O)[C@H](NC(=O)[C@@H]5NC(=O)[C@H](CC(N)=O)NC(=O)[C@H](NC(=O)[C@@H](CC(C)C)NC)[C@H](O)c6ccc(c(Cl)c6)Oc6cc5cc(c6O[C@@H]5O[C@H](CO)[C@@H](O)[C@H](O)[C@H]5O[C@H]5C[C@](C)(N)[C@H](O)[C@H](C)O5)Oc5ccc(cc5Cl)[C@H]4O)c4ccc(O)c(c4)-c4c(O)cc(O)cc43)CC2)C1=O)C(N)=O` (stereo partly shown) [VC-R3C-C8], the MIC median is 9.54 µg/mL (≈ 3.93 µM) and the MIC range was in the range of 9.54 to 19.08 µg/mL.

The molecule `CN[C@H](CC(C)C)C(=O)N[C@H]1C(=O)N[C@@H](CC(N)=O)C(=O)N[C@H]2C(=O)N[C@H]3C(=O)N[C@H](C(=O)N[C@H](C(=O)O)c4cc(O)cc(O)c4-c4cc3ccc4O)[C@H](O)c3ccc(c(Cl)c3)Oc3cc2cc(c3O[C@@H]2O[C@H](CO)[C@@H](O)[C@H](O)[C@H]2O[C@H]2C[C@](C)(NCCNC(=O)C3CCC(CN4C(=O)CC(SC[C@H](NC(=O)[C@H](CCCNC(=N)N)NC(=O)[C@H](CCCNC(=N)N)NC(=O)[C@@H](N)CCCNC(=N)N)C(N)=O)C4=O)CC3)[C@H](O)[C@H](C)O2)Oc2ccc(cc2Cl)[C@H]1O` (stereo partly shown) [VV-R3C] gave an MIC median of 4.35 µg/mL (≈ 1.89 µM) and an MIC range of 4.35 to 8.69 µg/mL.

`CCCCCC(=O)N[C@@H](CCCNC(=N)N)C(=O)N[C@@H](CCCNC(=N)N)C(=O)N[C@@H](CCCNC(=N)N)C(=O)N[C@@H](CSC1CC(=O)N(CC2CCC(C(=O)N(C)[C@H](CC(C)C)C(=O)N[C@H]3C(=O)N[C@@H](CC(N)=O)C(=O)N[C@H]4C(=O)N[C@H]5C(=O)N[C@H](C(=O)N[C@H](C(=O)O)c6cc(O)cc(O)c6-c6cc5ccc6O)[C@H](O)c5ccc(c(Cl)c5)Oc5cc4cc(c5O[C@@H]4O[C@H](CO)[C@@H](O)[C@H](O)[C@H]4O[C@H]4C[C@](C)(N)[C@H](O)[C@H](C)O4)Oc4ccc(cc4Cl)[C@H]3O)CC2)C1=O)C(N)=O` (stereo partly shown) [VN-R3C-C6] returned an MIC median of 72.00 µg/mL (≈ 30.6 µM) and an MIC range of 36.00 to 72.00 µg/mL.

Molecule `CCCCCCCCCC(=O)N[C@@H](CCCNC(=N)N)C(=O)N[C@@H](CCCNC(=N)N)C(=O)N[C@@H](CCCNC(=N)N)C(=O)N[C@@H](CSC1CC(=O)N(CC2CCC(C(=O)NCCN[C@@]3(C)C[C@H](O[C@H]4[C@H](Oc5c6cc7cc5Oc5ccc(cc5Cl)[C@@H](O)[C@@H](NC(=O)[C@@H](CC(C)C)NC)C(=O)N[C@@H](CC(N)=O)C(=O)N[C@H]7C(=O)N[C@H]5C(=O)N[C@H](C(=O)N[C@H](C(=O)O)c7cc(O)cc(O)c7-c7cc5ccc7O)[C@H](O)c5ccc(c(Cl)c5)O6)O[C@H](CO)[C@@H](O)[C@@H]4O)O[C@@H](C)[C@H]3O)CC2)C1=O)C(N)=O` (stereo partly shown) [VV-R3C-C10] returned an MIC median of 0.63 µg/mL (≈ 0.257 µM) and an MIC range of 0.05 to 0.84 µg/mL.
